US20220193085A1, “METHODS OF THROMBOPROPHYLAXIS” (JANSSEN PHARMACEUTICALS, INC., priority 2020, published 2022)

How the values were obtained:
[1] = UNIVERSE primary efficacy outcome: any thrombotic event (CIAC adjudicated); format: in vivo, pediatric patients; settings: Part B rivaroxaban N=64, aspirin N=34, up to end of treatment, full analysis set
From the text: This study was a prospective, open-label, active-controlled, multicenter study designed to evaluate the PK and PK/PD profiles, safety, and efficacy of rivaroxaban for thromboprophylaxis in pediatric patients 2 to 8 years of age with single ventricle physiology who have completed the Fontan procedure within 4 months prior to enrollment. The trial was approved by the institutional review board of each participating institution, as well as the appropriate national ethics committee. Written informed consent for trial participation was obtained from the parent or guardian of each patient. An Independent Data Monitoring Committee (IDMC) ensured patients' safety throughout the trial. A Central Independent Adjudication Committee (CIAC) reviewed all efficacy and safety events.
Part B was the randomized, open-label, active-controlled part of the study that evaluated the safety and efficacy of twice daily administration of rivaroxaban compared to ASA (usual standard of care) for thromboprophylaxis for 12 months. Patients randomized to rivaroxaban also had PK and PD assessments.
Primary efficacy outcome: Any thrombotic event, venous or arterial, symptomatic or asymptomatic defined as: • The appearance of a new thrombus within the cardiovascular system on either routine surveillance or clinically indicated imaging, or • The occurrence of a clinical event known to be strongly associated with thrombus (e.g., stroke, pulmonary embolism).
All efficacy outcomes were adjudicated by the CIAC, blinded to assigned treatment.

[2] = human, in vivo
From the text: The methods and products of the invention concern dosages that are clinically proven safe and/or effective. Adverse events that impact whether the inventive dose, dosing regimen, treatment or method with rivaroxaban of the present invention are safe are adverse bleeding events that include, for example, major bleeding. “Major bleeding” as used herein is defined in accordance with ISTH criteria as clinically overt bleeding associated with a decrease in hemoglobin of […], a transfusion of the equivalent of […] of packed red blood cells or whole blood, or bleeding at a critical site, or with fatal outcome. Other adverse events include clinically relevant non-major bleeding and trivial (minimal) bleeding.
The primary safety outcome was ISTH defined major bleeding. Major bleeding was defined as overt bleeding and: […]
1) Associated with a fall in hemoglobin of 2 g/dL or more; or 2) Leading to a transfusion of the equivalent of 2 or more units of packed red blood cells or whole blood in adults; or 3) Occurring in a critical site: intracranial, intraspinal, intraocular, pericardial, intraarticular, intramuscular with compartment syndrome, retroperitoneal; or 4) Contributing to death.
The secondary safety outcomes were: Clinically relevant non-major bleeding and trivial (minimal) bleeding events.

[3] = UNIVERSE adverse events, serious adverse events and treatment discontinuation; format: in vivo, pediatric patients; settings: Part B rivaroxaban N=64, aspirin N=34
From the text: Other safety outcomes: Any adverse events and serious adverse events (SAES).

[4] = treatment-emergent, safety set, listed as ASA
[5] = up to end of treatment, full analysis set

**Q.** Which results are given for `CC(=O)Oc1ccccc1C(=O)O` [Aspirin, acetylsalicylic acid]?
**A.** All-cause mortality, No. of subjects with event [1]: 0; Any thrombotic event (primary efficacy outcome), % of subjects [1]: (8.8%); Arterial/intracardiac thrombosis, subjects n (%) [1]: 0; Ischemic stroke, % of subjects [1]: (2.9%); Other thrombosis, subjects n (%) [1]: 0; Pulmonary embolism, subjects n (%) [1]: 0; Venous thromboembolism, % of subjects [1]: (5.9%); Venous thromboembolism, No. of subjects with event [1]: 2/34; Venous thrombosis, % of subjects [1]: (5.9%); Any thrombotic event (primary efficacy outcome), % of subjects ([1]; listed as ASA): 9%; CRNM bleeding: GI-Lower, % of subjects [2]: (2.9%); CRNM bleeding: Gastrointestinal, % of subjects [2]: (2.9%); CRNM bleeding: Gastrointestinal, subjects n (%) [2]: 1; CRNM bleeding: Gingival, subjects n (%) [2]: 0; CRNM bleeding: Hematoma, % of subjects [2]: (2.9%); CRNM bleeding: Skin, % of subjects [2]: (2.9%); CRNM bleeding: Subconjunctival, % of subjects [2]: (2.9%); Clinically relevant non-major (CRNM) bleeding, % of subjects [2]: (8.8%); Clinically relevant non-major (CRNM) bleeding, No. of subjects with event [2]: 3/34; Clinically relevant non-major bleeding, % of subjects [2]: (8.8%); Fall in hemoglobin ≥2 g/dL or transfusion of the equivalent ≥2 units of packed red blood cell or whole blood in adults, No. of subjects with event [2]: 0; Fatal or critical site bleeding, No. of subjects with event [2]: 0; Major and clinically relevant non-major bleeding, % of subjects [2]: (8.8%); Major and clinically relevant non-major bleeding, No. of subjects with event [2]: 3/34; Major bleeding (primary safety outcome), No. of subjects with event [2]: 0; Subjects with 1 or more on-treatment bleeding events, % of subjects [2]: (41.2%); Trivial (minimal) bleeding, % of subjects [2]: (35.3%); Trivial (minimal) bleeding, No. of subjects with event [2]: 12/34; Trivial bleeding, % of subjects [2]: (35.3%); Trivial bleeding: Epistaxis, % of subjects [2]: (8.8%); Trivial bleeding: Epistaxis, subjects n (%) [2]: 3; Trivial bleeding: GI-Lower, % of subjects [2]: (2.9%); Trivial bleeding: GI-Lower, subjects n (%) [2]: 1; Trivial bleeding: GI-Upper, subjects n (%) [2]: 0; Trivial bleeding: Gastrointestinal, % of subjects [2]: (2.9%); Trivial bleeding: Gastrointestinal, subjects n (%) [2]: 1; Trivial bleeding: Gingival, % of subjects [2]: (2.9%); Trivial bleeding: Gingival, subjects n (%) [2]: 1; Trivial bleeding: Hematoma, % of subjects [2]: (5.9%); Trivial bleeding: Hematoma, subjects n (%) [2]: 2; Trivial bleeding: Skin, % of subjects [2]: (23.5%); Trivial bleeding: Vascular Access Site, subjects n (%) [2]: 0; AEs related to Study Agent, % of subjects ([3]; safety set): (26.5%); AEs related to Study Agent, n (%) ([3]; safety set): 9; SAEs related to Study Agent, n (%) ([3]; safety set): 0; TEAEs resulting in Permanent Discontinuation of Study Agent, n (%) ([3]; safety set): 0; Adverse event: Pleural Effusion, % of participants ([3]; treatment-emergent, safety set): (6%); All TEAEs (subjects with 1 or more), % of subjects ([3]; treatment-emergent, safety set): (85.3%); All TESAEs (subjects with 1 or more serious adverse events), % of subjects ([3]; treatment-emergent, safety set): (23.5%); Serious adverse event: Infections, % of participants ([3]; treatment-emergent, safety set): (12%); Serious adverse event: Infections, n (%) ([3]; treatment-emergent, safety set): 4; Serious adverse event: Pleural Effusion, % of participants ([3]; treatment-emergent, safety set): (6%); Serious adverse event: Pleural Effusion, n (%) ([3]; treatment-emergent, safety set): 2; Serious adverse event: Respiratory, Thoracic, and Mediastinal Disorders, % of participants ([3]; treatment-emergent, safety set): (9%); Serious adverse event: Respiratory, Thoracic, and Mediastinal Disorders, n (%) ([3]; treatment-emergent, safety set): 3; TEAE: Gastrointestinal Disorders, % of subjects ([3]; treatment-emergent, safety set): (26.5%); TEAE: Gastrointestinal Disorders, n (%) ([3]; treatment-emergent, safety set): 9; TEAE: General Disorders and Administration Site Conditions, % of subjects ([3]; treatment-emergent, safety set): (23.5%); TEAE: General Disorders and Administration Site Conditions, n (%) ([3]; treatment-emergent, safety set): 8; TEAE: Infections and infestations, % of subjects ([3]; treatment-emergent, safety set): (64.7%); TEAE: Injury, Poisoning, and Procedural Complications, % of subjects ([3]; treatment-emergent, safety set): (29.4%); TEAE: Injury, Poisoning, and Procedural Complications, n (%) ([3]; treatment-emergent, safety set): 10; TEAE: Respiratory, Thoracic, and Mediastinal Disorders, % of subjects ([3]; treatment-emergent, safety set): (26.5%); TEAE: Respiratory, Thoracic, and Mediastinal Disorders, n (%) ([3]; treatment-emergent, safety set): 9; TEAE: Skin and Subcutaneous Tissue Disorders, % of subjects ([3]; treatment-emergent, safety set): (26.5%); TEAE: Skin and Subcutaneous Tissue Disorders, n (%) ([3]; treatment-emergent, safety set): 9; TEAE: Vascular Disorders, % of subjects ([3]; treatment-emergent, safety set): (2.9%); TEAE: Vascular Disorders, n (%) ([3]; treatment-emergent, safety set): 1; Adverse event: Pleural Effusion, n (%) [3, 4]: 2; All TEAEs (subjects with 1 or more), % of subjects [3, 4]: (85%); All TEAEs (subjects with 1 or more), n (%) [3, 4]: 29; All TESAEs (subjects with 1 or more serious adverse events), % of subjects [3, 4]: (24%); All TESAEs (subjects with 1 or more serious adverse events), n (%) [3, 4]: 8; TEAE: Gastrointestinal Disorders, % of subjects [3, 4]: (26%); TEAE: General Disorders and Administration Site Conditions, % of subjects [3, 4]: (24%); TEAE: Infections and infestations, % of subjects [3, 4]: (65%); TEAE: Infections and infestations, n (%) [3, 4]: 22; TEAE: Injury, Poisoning, and Procedural Complications, % of subjects [3, 4]: (29%); TEAE: Respiratory, Thoracic, and Mediastinal Disorders, % of subjects [3, 4]: (26%); TEAE: Skin and Subcutaneous Tissue Disorders, % of subjects [3, 4]: (26%); TEAE: Vascular Disorders, % of subjects [3, 4]: (3%); SAEs, % of subjects [3, 5]: (23.5%); SAEs, No. of subjects with event [3, 5]: 8/34
